These results are taken from patent US8772504B2, “Substituted benzoxazole, benzimidazole, oxazolopyridine and imidazopyridine derivatives as gamma secretase modulators” (Janssen Pharmaceuticals, Inc., priority 2009, dated 2014).

For orientation: IC50 means the midpoint of a concentration-inhibition curve. Lower therefore signals greater potency.

Assay [1] concerns Aβ42. Kind of assay: Screening for γ-secretase-modulating activity, Method 1: Aβ42 sandwich ELISA on SKNBE2 cell media. It is filed as cell-based. To be noted: SKNBE2 cells carrying APP 695 wild type. A digest of the protocol: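 SKNBE2 cells expressing wild-type APP695 were treated with compound for 18 h in Ultraculture/1% glutamine. Secreted Aβ42 was quantified by sandwich ELISA (C-terminal capture, biotinylated 3D6, TMB, 450 nm), with WST-1 used as a toxicity check. IC50 was derived from 4-parameter fits of % inhibition or % of untreated control.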

For assay [2], the system named is Aβtotal. Kind of assay: Screening for γ-secretase-modulating activity, Method 1: Aβtotal sandwich ELISA on SKNBE2 cell media. The note with it: SKNBE2 cells carrying APP 695 wild type. Type of assay: cell-based. A digest of the protocol: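 SKNBE2 cells expressing wild-type APP 695 were treated with compound for 18 hours. Aβtotal in the medium was measured by sandwich ELISA (6E10 capture, biotinylated 4G8 detection, fluorogenic peroxidase read-out). IC50 came from a 4-parameter fit of % inhibition with top/bottom fixed at 100/0 and Hill slope 1, or as averaged IC50 from % of untreated control.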
On the technique in general: In an ELISA, binding on a coated surface is turned into a signal by an enzyme label.

The test system of assay [3] is Aβtotal. The assay can be described thus: In vivo efficacy Method 1: brain soluble Aβtotal by ELISA. Details: species or system mouse. To be noted: Table 4a, single oral dose, overnight fasted animals, sacrificed after 4 h, soluble fraction of brain homogenates. The source says:
(§1) To determine whether acute administration of an Aβ42 lowering agent would reduce Aβ42 levels in vivo, non-transgenic rodents, e.g. mice or rats were used. Alternatively, two to three month old Tg2576 mice expressing APP695 containing the “Swedish” variant can be used or a transgenic mouse model developed by Dr. Fred Van Leuven (K.U. Leuven, Belgium) and co-workers, with neuron-specific expression of a clinical mutant of the human amyloid precursor protein [V717I] […] Young transgenic mice have high levels of Aβ in the brain but no detectable Aβ deposition. At approximately 6-8 months of age, the transgenic mice start to display spontaneous, progressive accumulation of β-amyloid (Aβ) in the brain, eventually resulting in amyloid plaques within the subiculum, hippocampus and cortex. Animals treated with the Aβ42 lowering agent were examined and compared to those untreated or treated with vehicle and brain levels of soluble Aβ42 and total Aβ would be quantitated by standard techniques, for example, using ELISA.
(§2) A typical protocol for measuring Aβ42 lowering in vivo is shown but it is only one of many variations that could be used to optimize the levels of detectable Aβ. For example, Aβ42 lowering compounds were formulated in 20% of Captisol® (a sulfobutyl ether of β-cyclodextrin) in water or 20% hydroxypropyl β cyclodextrin. The Aβ42 lowering agents were administered as a single oral dose or by any acceptable route of administration to overnight fasted animals. After 4 h, the animals were sacrificed and Aβ42 levels were analysed.
(§3) Blood was collected by decapitation and exsanguinations in EDTA-treated collection tubes. Blood was centrifuged at 1900 g for 10 minutes (min) at 4° C. and the plasma recovered and flash frozen for later analysis. The brain was removed from the cranium and hindbrain. The cerebellum was removed and the left and right hemisphere were separated. The left hemisphere was stored at −18° C. for quantitative analysis of test compound levels. The right hemisphere was rinsed with phosphate-buffered saline (PBS) buffer and immediately frozen on dry ice and stored at −80° C. until homogenization for biochemical assays.
(§4) All samples were sonicated for 30 seconds on ice at 20% power output (pulse mode). Homogenates were centrifuged at 221.300×g for 50 min. The resulting high speed supernatants were then transferred to fresh tubes and were optionally further purified before the next step. A portion of the supernatant was neutralized with 10% 0.5 M Tris-HCl and this was used to quantify Aβtotal.
The obtained supernatants were purified with Water Oasis HLB reverse phase columns (Waters Corp., Milford, Mass.) to remove non-specific immunoreactive material from the brain lysates prior subsequent Aβ detection. Using a vacuum manifold, all solutions were passed through the columns at a rate of approximately 1 ml per min, so the vacuum pressure was adjusted accordingly throughout the procedure. Columns were preconditioned with 1 ml of 100% MeOH, before equilibration with 1 ml of H2O, Non-neutralized brain lysates were loaded onto the columns. The loaded samples were then washed twice with the first wash performed with 1 ml of 5% MeOH, and the second wash with 1 ml of 30% MeOH. Finally, the Aβ was eluted from the columns and into 100×30 mm glass tubes, with a solution of 90% MeOH with 2% NH4OH. The eluate was then transferred into 1.5 ml tubes and concentrated in a speed-vac concentrator on high heat for about 1.5-2 h at 70° C. The concentrated Aβ was then resuspended in UltraCULTURE General Purpose Serum-Free Medium (Cambrex Corp., Walkersville, Md.) plus Protease Inhibitors added. […]

Assay [4] concerns Aβ42. The assay can be described thus: In vivo efficacy Method 1: brain soluble Aβ42 by ELISA. Details: species or system mouse. The note with it: Table 4a, single oral dose, overnight fasted animals, sacrificed after 4 h, soluble fraction of brain homogenates.
Text: as §1, §2, §3, §4
The obtained supernatants were purified with Water Oasis HLB reverse phase columns (Waters Corp., Milford, Mass.) to remove non-specific immunoreactive material from the brain lysates prior subsequent Aβ detection. Using a vacuum manifold, all solutions were passed through the columns at a rate of approximately 1 ml per min, so the vacuum pressure was adjusted accordingly throughout the procedure. Columns were preconditioned with 1 ml of 100% MeOH, before equilibration with 1 ml of H2O, Non-neutralized brain lysates were loaded onto the columns. The loaded samples were then washed twice with the first wash performed with 1 ml of 5% MeOH, and the second wash with 1 ml of 30% MeOH. Finally, the Aβ was eluted from the columns and into 100×30 mm glass tubes, with a solution of 90% MeOH with 2% NH4OH. The eluate was then transferred into 1.5 ml tubes and concentrated in a speed-vac concentrator on high heat for about 1.5-2 h at 70° C. The concentrated Aβ was then resuspended in UltraCULTURE General Purpose Serum-Free Medium (Cambrex Corp., Walkersville, Md.) plus Protease Inhibitors added.
To quantify the amount of Aβ42 in the soluble fraction of the brain homogenates, commercially available Enzyme-Linked-Immunosorbent-Assay (ELISA) kits were used (e.g. Innotest® β-Amyloid(1-42), Innogenetics N.V., Ghent, Belgium). The Aβ42 ELISA was performed using the plate provided with the kit only.

The test system of assay [5] is Aβ42. Kind of assay: Screening for γ-secretase-modulating activity, Method 2: Aβ42 Alphalisa on SKNBE2 cell supernatant. Type of assay: cell-based. To be noted: Method 2, Table 3c, SKNBE2 cells carrying APP 695 wild type, overnight incubation. In a few lines:
(§5)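 SKNBE2 cells expressing wild-type APP695, plated at 10^4 cells/well with compound at several concentrations and incubated overnight at 37° C. Aβ42 (C-terminal capture, N-terminal biotinylated detection) and Aβtotal (N-terminal/4G8 pair) measured in supernatant by AlphaLISA. IC50 from 4-parameter fit of percent of compound-free control.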
A general note: Bead proximity is the source of the signal in Alpha formats.

In assay [6] the test system is Aβtotal. The assay can be described thus: Screening for γ-secretase-modulating activity, Method 2: Aβtotal Alphalisa on SKNBE2 cell supernatant. Type of assay: cell-based. To be noted: Method 2, Table 3c, SKNBE2 cells carrying APP 695 wild type, overnight incubation. A digest of the protocol: as §5
Assay [7] deals with Aβ42. Kind of assay: In vivo efficacy Method 2: brain soluble Aβ42 by ELISA. Details: species or system mouse. The note with it: Table 4b, single oral dose, overnight fasted non-transgenic animals, sacrificed after 4 h, soluble fraction of brain homogenates.
Text: (§6) To determine whether acute administration of an Aβ42 lowering agent would reduce Aβ42 levels in vivo, non-transgenic rodents, e.g. mice or rats were used. Animals treated with the Aβ42 lowering agent were examined and compared to those untreated or treated with vehicle and brain levels of soluble Aβ42 and total Aβ were quantitated by standard techniques, for example, using ELISA. Treatment periods varied from hours (h) to days and were adjusted based on the results of the Aβ42 lowering once a time course of onset of effect could be established.
as §2, §3
(§7) Mouse brains from non-transgenic animals were resuspended in 8 volumes of 0.4% DEA (diethylamine)/50 mM NaCl containing protease inhibitors (Roche-11873580001 or 04693159001) per gram of tissue, e.g. for 0.158 g brain, add 1.264 ml of 0.4% DEA. All samples were homogenized in the FastPrep-24 system (MP Biomedicals) using lysing matrix D (MPBio #6913-100) at 6 m/s for 20 seconds. Homogenates were centrifuged at 221.300×g for 50 min. The resulting high speed supernatants were then transferred to fresh eppendorf tubes. Nine parts of supernatant were neutralized with 1 part 0.5 M Tris-HCl pH 6.8 and used to quantify Aβtotal and Aβ42.
(§8) To quantify the amount of Aβtotal and Aβ42 in the soluble fraction of the brain homogenates, Enzyme-Linked-Immunosorbent-Assays were used . Briefly, the standards (a dilution of synthetic Aβ1-40 and Aβ1-42, Bachem) were prepared in 1.5 ml Eppendorf tube in Ultraculture, with final concentrations ranging from 10000 to 0.3 pg/ml. The samples and standards were co-incubated with HRPO-labelled N-terminal antibody for Aβ42 detection and with the biotinylated mid-domain antibody 4G8 for Aβtotal detection. 50 μl of conjugate/sample or conjugate/standards mixtures were then added to the antibody-coated plate (the capture antibodies selectively recognize the C-terminal end of Aβ42, antibody JRF/cAβ42/26, for Aβ42 detection and the N-terminus of Aβ, antibody JRF/rAβ/2, for Aβtotal detection). The plate was allowed to incubate overnight at 4° C. in order to allow formation of the antibody-amyloid complex. Following this incubation and subsequent wash steps the ELISA for Aβ42 quantification was finished by addition of Quanta Blu fluorogenic peroxidase substrate according to the manufacturer's instructions (Pierce Corp., Rockford, Ill.). A reading was performed after 10 to 15 min (excitation 320/emission 420).
In this model at least 20% Aβ42 lowering compared to untreated animals would be advantageous.

Assay [8] concerns Aβtotal. Kind of assay: In vivo efficacy Method 2: brain soluble Aβtotal by ELISA. Further details: species or system mouse. To be noted: Table 4b, single oral dose, overnight fasted non-transgenic animals, sacrificed after 4 h, soluble fraction of brain homogenates.
Text: as §6, §2, §3, §7, §8
For Aβtotal detection, a Streptavidine-Peroxidase-Conjugate was added, followed 60 min later by an additional wash step and addition of Quanta Blu fluorogenic peroxidase substrate according to the manufacturer's instructions (Pierce Corp., Rockford, Ill.). A reading was performed after 10 to 15 min (excitation 320 nm/emission 420 nm).

The mark [9] stands for this setting: Table 3a, 18 hours, XLfit, top/bottom fixed to 100 and 0, hill slope 1.
Where [10] appears, read: Table 3b, non-linear regression of % of control, averaged IC50 values.

Where only a bound is given, the exact number is not on record here.

On to `COc1cc(Nc2cccc3c2nc(-c2cccc(Cl)c2)n3C)ccc1-n1ncnc1C` [Compound 96], for which the IC50 in assay [1] (setting [9]) was 31 nM; in assay [1] (setting [10]), 24 nM; in assay [2] (setting [9]) it was over 1000 nM; in assay [2] (setting [10]) it was over 3000 nM. In assay [3], the “Aβtotal (% Ctrl) _Mean” value amounted to 88 % Ctrl. The “Aβ42 (% Ctrl) _Mean” value in assay [4] worked out at 62 % Ctrl.
Regarding `Cc1ncnn1-c1ccc(Nc2nccc3c2nc(-c2ccc(F)cc2)n3C)cc1F` [Compound 97], the IC50 in assay [1] (setting [9]) was 435 nM; in assay [1] (setting [10]), 398 nM; in assay [2] (setting [9]) it was over 3000 nM; in assay [2] (setting [10]) it was over 10000 nM. Besides, the “Aβtotal (% Ctrl) _Mean” value in assay [3] is given as 96 % Ctrl. Further, in assay [4], the “Aβ42 (% Ctrl) _Mean” value worked out at 96 % Ctrl.
For the compound `Cc1cn(-c2ccc(Nc3nccc4c3nc(-c3ccc(F)cc3F)n4C)cc2F)cn1` [Compound 104], the IC50 in assay [1] (setting [9]) is 50 nM; in assay [1] (setting [10]), 44 nM; in assay [2] (setting [9]), over 3000 nM; in assay [2] (setting [10]), over 3000 nM. Further, in assay [3], the “Aβtotal (% Ctrl) _Mean” value is listed as 110 % Ctrl. The “Aβ42 (% Ctrl) _Mean” value in assay [4] was 65 % Ctrl.
`COc1nc(Nc2cc(F)cc3c2nc(-c2ccc(F)cc2)n3C(C)C)ccc1-n1cnc(C)c1` [Compound 106]: the IC50 came out at 4 nM in assay [5] (Homo sapiens) and 6170 nM in assay [6] (Homo sapiens). Moreover, the “Aβtotal (% Ctrl) _Mean” value in assay [3] is 104 % Ctrl. The “Aβ42 (% Ctrl) _Mean” value in assay [4] came to 87 % Ctrl.
Take `COc1cc(-c2nc3c(Nc4ccc(-n5cnc(C)c5)c(OC)n4)cccc3n2C(C)C)ccc1Cl` [Compound 131]: the IC50 in assay [5] was 5 nM; in assay [6] it was 8130 nM. Moreover, the “Aβtotal (% Ctrl) _Mean” value in assay [3] is listed as 84 % Ctrl. Besides, the “Aβ42 (% Ctrl) _Mean” value in assay [4] is reported as 51 % Ctrl.
On to `COc1cc(-c2nc3c(Nc4ccc(-n5cnc(C)c5)c(F)c4)nc(C)cc3n2C)ccc1Cl` [Compound 136], for which the figures for the IC50 in assay [5] and in assay [6] were 9 nM and over 10000 nM, respectively. Besides, the “Aβ42 (% Ctrl) _Mean” value in assay [7] is on record as 77 % Ctrl. In addition, the “Aβtotal (% Ctrl) _Mean” value in assay [8] is 104 % Ctrl.
